What all share (format): in vivo
Test [1] has as its system female shrimps (Litopenaeus vannamei). The experiment in a line: spawning times of female shrimps after administration. Here is the method:
(§1) After these, an effective amount of the artificially decapeptide is administrated to a crustacean, wherein, the effective amount of the artificially decapeptide may be 10 nanograms (ng) to 1000 ng, preferably 50 ng, per gram of body weight for each administrating. In one embodiment of the present embodiment a sustainable releasing dosage of the artificial decapeptide may be optionally prepared and administrated to the crustacean, so as to simplify the administration process. A method of preparing the sustainable releasing dosage of the artificially decapeptide, for example, may include formulating a great amount of the artificially decapeptide in an excipient, such as an excipient including oil. For example, 100 ng to 2000 ng of the artificially decapeptide may be formulated in 50 microliter (μl) to 200 μl of the excipient. With such arrangement, while the sustainable releasing dosage of the artificially decapeptide is administrated to the crustacean, the artificially decapeptide therein may be allowed to progressively release in the crustacean, thereby extending the inducing effect to the crustacean. Thus, in another embodiment of the present invention, the sustainable releasing dosage of the artificially decapeptide may be administrated to the crustacean every three to six months, preferably every four months, but not limited thereto. In other embodiment of the present invention, the artificially decapeptide may also be firstly formulated in saline, to forma solvent, and then, mixed with the excipient, wherein a volume ratio between the solvent and the excipient may be 1:1 to 1:3. Furthermore, in another embodiment, the excipient may include mineral oil, such as […] or incomplete adjuvant; vegetable oil, such as peanut oil, olive oil or coconut oil; fat adhesive, such as methylcellulose; or a composite of the aforementioned oil.
In the present test, the artificial decapeptide of the present invention is exemplified on numbers of Litopenaeus vannamei (Decapoda: Macrura). […]
(§2) In the present test, the artificial decapetide is firstly formulated in the aforementioned sustainable releasing dosage and then administrated to each Litopenaeus vannamei. After that, the spermatophore development of each male shrimp is determined and recorded every 4 days after the administration, through observing the external characteristics spermatophore. Also, the spermatophore weight, as well as the sperm count, is precisely measured 44 days after the administration. On the other hand, the ovarian development of each female shrimp is also determined and recorded weekly 2-4 months after the administration through observing the external characteristics and the maturity of ovarian. Furthermore, the spawning times of each female shrimp may be also recorded. […]

Test [2] shares this test system. In words: ovarian development of female shrimps after administration. To be noted: recorded weekly 2-4 months after the administration, percentage relative to overall Litopenaeus vannamei in the test. The protocol:
as §1
In the present test, the artificial decapeptide of the present invention is exemplified on numbers of Litopenaeus vannamei (Decapoda: Macrura). However, people in the art should easily realize the present invention is not limited thereto.
In the present test, the artificial decapetide is firstly formulated in the aforementioned sustainable releasing dosage and then administrated to each Litopenaeus vannamei. After that, the spermatophore development of each male shrimp is determined and recorded every 4 days after the administration, through observing the external characteristics spermatophore. Also, the spermatophore weight, as well as the sperm count, is precisely measured 44 days after the administration. On the other hand, the ovarian development of each female shrimp is also determined and recorded weekly 2-4 months after the administration through observing the external characteristics and the maturity of ovarian. Furthermore, the spawning times of each female shrimp may be also recorded. Please refer to TABLEs 1-3 and FIGS. 1-2, which illustrate gonadal promoting effects of the artificial decapeptide either on male or female shrimps (Litopenaeus vannamei). Wherein, TABLE 1 and FIGS. 1-2 show the maturity of spermatophore in male shrimps, including the development stage, spermatophore weight and sperm count per spermatophore, after the artificial decapeptide is administrated, in comparison with untreated male shrimps (control; marked as B in FIGS. 1-2), respectively.

The test system of test [3] is male shrimps (Litopenaeus vannamei). In words: maturity of spermatophore in male shrimps after administration of sustainable releasing dosage. Here is the method: After these, an effective amount of the artificially decapeptide is administrated to a crustacean, wherein, the effective amount of the artificially decapeptide may be 10 nanograms (ng) to 1000 ng, preferably 50 ng, per gram of body weight for each administrating. In one embodiment of the present embodiment a sustainable releasing dosage of the artificial decapeptide may be optionally prepared and administrated to the crustacean, so as to simplify the administration process. A method of preparing the sustainable releasing dosage of the artificially decapeptide, for example, may include formulating a great amount of the artificially decapeptide in an excipient, such as an excipient including oil. For example, 100 ng to 2000 ng of the artificially decapeptide may be formulated in 50 microliter (μl) to 200 μl of the excipient. With such arrangement, while the sustainable releasing dosage of the artificially decapeptide is administrated to the crustacean, the artificially decapeptide therein may be allowed to progressively release in the crustacean, thereby extending the inducing effect to the crustacean. […]
as §2

Where [4] appears, read: 44 days after the administration.

Marks after values point to notes of the source that are not given here.

For “artificial decapeptide: Synthetic 10-amino-acid peptide based on chicken GnRH-II (SEQ ID NO: 2); N-terminal Glu and C-terminal Gly unblocked (H-EHWSHGWYPG-OH; listed as Gallus gallus)”, in test [1] (0 spawnings, 8-16 weeks after administrating, percentage relative to overall Litopenaeus vannamei in the test), the “percentage of female shrimps with spawning times 0” value was determined as 20%^b. Also, in test [1] (3 spawnings, 8-16 weeks after administrating, percentage relative to overall Litopenaeus vannamei in the test), the “percentage of female shrimps with spawning times 3” value amounted to 0%^b. Also, the effective period result in test [1] (compared with current techniques (around one month)) is “between two and four”. Besides, in test [1] (compared with current techniques (fewer times of spawning)), the “number of spawnings induced” value is “four”. For the same substance, the “percentage of female shrimps at ovarian development stage 0” value in test [2] (stage 0) is 0%^b. For the same substance, the “percentage of female shrimps at ovarian development stage 0.5” value in test [2] (stage 0.5) came out at 20%^b. Further, the “percentage of female shrimps at ovarian development stage 1” value in test [2] (stage 1) turned out to be 0%^b. Also, the “percentage of female shrimps at ovarian development stage 1.5” value in test [2] (stage 1.5) is reported as 0%^b. Moreover, the “percentage of female shrimps at ovarian development stage 2” value in test [2] (stage 2) was found to be 0%^b. Also, the “percentage of female shrimps at ovarian development stage 2.5” value in test [2] (stage 2.5) worked out at 0%^b. Further, in test [2] (stage 3), the “percentage of female shrimps at ovarian development stage 3” value amounted to 0%^b. In test [3] (setting [4]), the “sperm count per spermatophore” value is on record as 68.5 ± 18.14 10^5/per spermatophore and the spermatophore weight is on record as 0.0217 ± 0.007 g. For the same substance, the “spermatophore development stage reached” value in test [3] (in 44 days after the administration) was found to be 2.5.

(Values after US20160145300A1, “ARTIFICIAL DECAPEPTIDE, MEDICATION AND METHOD OF INDUCING BREEDING OF CRUSTACEANS” (National Pingtung University of Science and technology, priority 2014, published 2016).)
